In patent publication US12247004B2, “2-amino-N-(amino-oxo-aryl-lambda6-sulfanylidene)acetamide compounds and their therapeutic use” (Oxford Drug Design Limited, priority 2019, dated 2025):
Values after ≈ are worked out from the molar mass of the structure shown. Where a name gives a salt, the structure may show the parent alone. Read-outs that look alike come from different tables or passages of the source.

Columns and labels:
[1] = molecular target: Leucyl-tRNA synthetase (LeuRS) (Escherichia coli (strain K12), UniProt P07813); assay: Leucyl-tRNA synthetase enzyme inhibition (AMP-Glo; single point % inhibition at 100 μM and IC50); assay type: biochemical
Chain of Leucyl-tRNA synthetase (LeuRS) (P07813 whole entry, looked up): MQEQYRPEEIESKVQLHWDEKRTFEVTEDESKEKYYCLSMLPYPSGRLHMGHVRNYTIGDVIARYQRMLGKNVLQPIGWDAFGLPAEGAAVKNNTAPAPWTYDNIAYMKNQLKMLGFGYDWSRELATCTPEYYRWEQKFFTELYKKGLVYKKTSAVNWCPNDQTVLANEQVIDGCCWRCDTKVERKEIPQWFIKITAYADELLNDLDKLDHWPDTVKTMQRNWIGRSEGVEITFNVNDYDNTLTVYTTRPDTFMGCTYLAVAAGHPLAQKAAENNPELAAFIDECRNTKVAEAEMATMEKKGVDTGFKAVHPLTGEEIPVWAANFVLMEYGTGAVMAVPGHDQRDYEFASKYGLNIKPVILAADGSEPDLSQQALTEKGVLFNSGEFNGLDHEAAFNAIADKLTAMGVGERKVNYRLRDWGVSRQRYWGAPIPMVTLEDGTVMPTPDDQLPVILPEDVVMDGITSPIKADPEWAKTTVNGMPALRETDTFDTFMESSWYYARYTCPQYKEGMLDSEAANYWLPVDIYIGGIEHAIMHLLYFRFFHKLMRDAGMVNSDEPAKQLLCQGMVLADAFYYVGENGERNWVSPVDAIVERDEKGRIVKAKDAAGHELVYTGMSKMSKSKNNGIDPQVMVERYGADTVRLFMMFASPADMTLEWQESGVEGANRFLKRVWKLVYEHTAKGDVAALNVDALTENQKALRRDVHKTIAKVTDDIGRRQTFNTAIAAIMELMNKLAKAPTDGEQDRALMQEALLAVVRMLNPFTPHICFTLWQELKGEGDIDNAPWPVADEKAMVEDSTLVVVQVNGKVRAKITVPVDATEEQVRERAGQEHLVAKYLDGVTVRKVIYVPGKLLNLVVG
Text: Study 1—Enzyme Inhibition
The aminoacylation reaction catalyzed by aminoacyl-tRNA synthetases (aaRS) takes place in two steps. In the first step, aaRS activates its cognate amino acid with ATP; and in the second step the activated amino acid is loaded to its corresponding tRNA. This reaction can be summarized as follows: aaRS+aa+ATP=aaRS-aa-AMP+PPi aaRS-aa-AMP+tRNA=aa-tRNA+AMP+aaRS
wherein: aaRS, aminoacyl-tRNA synthetase; aa, amino acid; aaRS-aa-AMP, enzyme-bound to aminoacyl-adenylate; AMP, adenosine monophosphate; aa-tRNA, aminoacyl-tRNA, PPi, inorganic pyrophosphate.
a. Single Point Percentage Inhibition
The activity of the pathogenic aaRSs was monitored by measuring AMP production using the commercial kit AMP-Glo (Promega, Madison, USA).
Ligand stock solutions were prepared in 100% DMSO at 10 mM concentration. An assay buffer consisting of 100 mM Tris HCl pH 7.6, 40 mM MgCl, 20 mM KCl and 150 mM NaCl was prepared in dH2O.
Using the same enzymatic assay in a 384-well plate format, ten point concentration response curves were generated for each compound using a top concentration of 10 μM. The known inhibitor LeuAMS was used as a positive control for the LeuRS assay. 100% DMSO was used as a negative control. The IC50 was calculated based on non-linear regression analysis.

[2] = Human cell viability / cytotoxicity (CellTiter-Glo, 24 hours); assay type: cell-based; settings: human, HepG2 cells (ATCC HB-8065); HepG2 ATCC HB-8065, 24 hours; read-out: Cytotoxicity in HepG2 ATCC HB-8065 Cell Line, IC50
Method: Study 3—Human Cell Viability
Compounds were assessed for potential non-specific cytotoxic effects against a human hepatic cell line (HepG2 ATCC HB-8065). 96-well plates were seeded with HepG2 cells in concentration of 15,000 cells per well in 100 μL of MEM growth media completed with 1% NEAA and 1% sodium pyruvate. Border wells were filled with 100 μL of sterile PBS. Two days upon cells incubation, the compounds were added. Compound dilutions were prepared in 96-well V-bottom plate in pure DMSO. Growth media from 5 plates were aspirated and replaced with 98.7 μL of fresh growth media. 1.28 μL of compounds prepared in V-bottom plates were transferred with multichannel pipette into test plates (78.1× dilution). Final DMSO concentration was 1.28% per well. In control wells, 1.28 μL of DMSO was added in 98.7 μL of media. Compounds were tested in duplicates. Cells were incubated with compounds for 24 hours when cell viability was assessed by measuring ATP levels. ATP levels were measured by adding 50 μL of CellTiter-Glo reagent to each well and after 5 minutes of incubation luminescence was measured with SpectraMax i3. The potential effect of tested compounds on cell viability was determined by comparing the signal obtained in presence of different concentrations of the compounds with those obtained in the presence of DMSO only. The potential effects were then calculated and presented as IC50 values (μg/mL).

[3] = test system: bacteria (ATCC reference strains); assay: Antibacterial activity, MIC by broth micro-dilution (CLSI)
[4] = E. coli LeuRS, read-out: Enzyme Inhibition - IC50, E. coli LeuRS
[5] = Escherichia coli, ATCC25922, read-out: Antibacterial Activity (MIC), A = E. coli ATCC 25922
[6] = Escherichia coli, BAA2469, read-out: Antibacterial Activity (MIC), G = E. coli BAA-2469
[7] = Klebsiella pneumoniae, ATCC700603, read-out: Antibacterial Activity (MIC), C = K. pneumoniae ATCC 700603

Structure (SMILES) | IC50 [1] [nM] | IC50 at 24 h [2] [µg/mL] | IC50 [1, 4] [nM] | further results
CC(C)C[C@H](N)C(=O)N=S(N)(=O)c1csc(Cl)c1 (mixture of isomers) [ANASIA-099] | 72.2 | > 64 |  | 
CC(C)C[C@H](N)C(=O)N=[S@](N)(=O)c1cccs1.Cl (single isomer, unassigned) [ANASIA-007-1, (S)-2-amino-N—((S)-amino(oxo)(thiophen-2-yl)-λ6-sulfanylidene)-4-methylpentanamide hydrochloride] |  | > 64 | 63.3 | 
CC(C)C[C@H](N)C(=O)N=[S@@](N)(=O)c1cccc(Cl)c1F [ANASIA-001-2] |  | > 64 | 3530 | 
CC(C)C[C@H](N)C(=O)N=[S@@](N)(=O)c1ccccc1 [ANASIA-003-2, (S)-2-amino-N—((R)-amino(oxo)(phenyl)-λ6-sulfanylidene)-4-methylpentanamide hydrochloride] |  | > 64 | 2260 | 
Cc1cccc([S@@](N)(=O)=NC(=O)[C@@H](N)CC(C)C)c1 [ANASIA-005-1] | 3030 | > 64 |  | 
CC(C)C[C@H](N)C(=O)N=[S@@](N)(=O)c1ccsc1 [ANASIA-008-2] |  | > 64 | 2000 | 
CC(C)C[C@H](N)C(=O)N=[S@](N)(=O)c1ccc(Cl)s1 [ANASIA-009-1] | 1830 | > 64 |  | 
CC(C)C[C@H](N)C(=O)N=[S@](N)(=O)c1cccc(F)c1 [ANASIA-011-1] |  | > 64 |  | 
CC(C)C[C@H](N)C(=O)N=[S@@](N)(=O)c1cccc(F)c1 [ANASIA-011-2] |  | > 64 |  | 
CC(C)C[C@H](N)C(=O)N=S(N)(=O)c1cccc(F)c1 (stereo partly shown) [ANASIA-011] |  | > 64 |  | 
CC(C)C[C@H](N)C(=O)N=[S@@](N)(=O)c1sccc1Cl [ANASIA-012-2] |  | > 64 | 3230 | 
CC(C)C[C@H](N)C(=O)N=S(N)(=O)c1ccc2ccccc2c1 (stereo partly shown) [ANASIA-013] |  | > 64 | 3570 | 
Cc1ccc([S@](N)(=O)=NC(=O)[C@@H](N)CC(C)C)s1 [ANASIA-014-2] |  | > 64 | 3980 | 
Cc1ccsc1[S@](N)(=O)=NC(=O)[C@@H](N)CC(C)C [ANASIA-015-2] |  | > 64 | 1860 | 
CC(C)C[C@H](N)C(=O)N=[S@](N)(=O)c1cccc2ccccc12 [ANASIA-016-1] | 2200 | > 64 |  | 
CC(C)C[C@H](N)C(=O)N=[S@@](N)(=O)c1cccc2ccccc12 [ANASIA-016-2] |  | > 64 | 5560 | 
CC(C)C[C@H](N)C(=O)N=S(N)(=O)c1cccc2ccccc12 (stereo partly shown) [ANASIA-016] |  | > 64 | 3040 | 
CC(C)C[C@H](N)C(=O)N=[S@](N)(=O)c1ccc(C(F)F)s1.Cl [ANASIA-017-1] |  | > 64 |  | MIC ([3]; Acinetobacter baumannii, read-out: Antibacterial Activity (MIC), E = A. baumannii B1931): > 64 µg/mL; MIC [3, 5]: 4 µg/mL; MIC [3, 6]: 22.6 µg/mL; MIC ([3]; Haemophilus influenzae, ATCC49247, read-out: Antibacterial Activity (MIC), F = H. influenzae ATCC 49247): 4 µg/mL; MIC [3, 7]: > 256 µg/mL; MIC ([3]; Pseudomonas aeruginosa, ATCC27853, read-out: Antibacterial Activity (MIC), D = P. aeruginosa ATCC 27853): > 64 µg/mL
CC(C)C[C@H](N)C(=O)N=[S@](N)(=O)c1cccc(-c2ccccc2)c1 [ANASIA-018-1] | 223 | > 64 |  | 
CC(C)C[C@H](N)C(=O)N=[S@@](N)(=O)c1cccc(-c2ccccc2)c1 [ANASIA-018-2] |  | > 64 | 2970 | 
CC(C)C[C@H](N)C(=O)N=S(N)(=O)c1ccc(Cl)c2ccccc12 (stereo partly shown) [ANASIA-019] |  | > 64 | 2260 | 

Structure (SMILES) | IC50 [1] [nM] | IC50 at 24 h [2] [µg/mL] | IC50 [1, 4] [nM] | further results
CC(C)C[C@H](N)C(=O)N=[S@](N)(=O)c1ccc(F)c2ccccc12 [ANASIA-020-1] | 2050 | > 64 |  | 
CC(C)C[C@H](N)C(=O)N=[S@@](N)(=O)c1ccc(F)c2ccccc12 [ANASIA-020-2] |  | > 64 | 4090 | 
Cc1ccc([S@@](N)(=O)=NC(=O)[C@@H](N)CC(C)C)cc1 [ANASIA-021-1] | 2060 | > 64 |  | 
COc1ccc([S@@](N)(=O)=NC(=O)[C@@H](N)CC(C)C)cc1C [ANASIA-022-1] | 6570 | > 64 |  | 
CC(C)C[C@H](N)C(=O)N=S(N)(=O)c1cc2ccccc2s1 (stereo partly shown) [ANASIA-023] | 1290 | > 64 |  | 
CC(C)C[C@H](N)C(=O)N=[S@@](N)(=O)c1cc(F)ccc1F [ANASIA-024-2] |  | > 64 | 6280 | 
CC(C)C[C@H](N)C(=O)N=[S@](N)(=O)c1c(F)cccc1F [ANASIA-026-1] | 564 | > 64 |  | 
CC(C)C[C@H](N)C(=O)N=[S@@](N)(=O)c1c(F)cccc1F [ANASIA-026-2] |  | > 64 | 4420 | 
Cc1cc(F)ccc1[S@@](N)(=O)=NC(=O)[C@@H](N)CC(C)C [ANASIA-027-1] | 4530 | > 64 |  | 
CC[C@H](C)[C@H](N)C(=O)N=S(N)(=O)c1ccc2ccccc2c1 (stereo partly shown) [ANASIA-030] |  | > 64 |  | 
Cc1cnc(S(N)(=O)=NC(=O)[C@@H](N)CC(C)C)s1 (stereo partly shown) [ANASIA-039] |  | > 64 | 8830 | 
CC(C)C[C@H](N)C(=O)N=[S@](N)(=O)c1ccc(Cl)cc1 [ANASIA-040-1] | 2540 | > 64 |  | 
CC(C)C[C@H](N)C(=O)N=[S@@](N)(=O)c1cccc(C#N)c1 [ANASIA-041-2] |  | > 64 | 832 | 
CC(C)C[C@H](N)C(=O)N=[S@](N)(=O)c1ccc(Cl)c(Cl)c1 [ANASIA-042-1] | 1110 | > 64 |  | 
CC(C)C[C@H](N)C(=O)N=[S@@](N)(=O)c1ccc(Cl)c(Cl)c1 [ANASIA-042-2] |  | > 64 | 7920 | 
CC(C)C[C@H](N)C(=O)N=[S@@](N)(=O)c1cccc(C(C)C)c1 [ANASIA-043-2] |  | > 64 | 735 | 
CC(C)C[C@H](N)C(=O)N=[S@@](N)(=O)c1cccc(Cl)c1Cl [ANASIA-046-2] | 2570 | > 64 |  | 
CC(C)C[C@H](N)C(=O)N=[S@@](N)(=O)c1cccc(Oc2ccc(Cl)cc2)c1 [ANASIA-047-2] |  | 45.3 (≈ 114 µM) | 1290 | 
CC(C)C[C@H](N)C(=O)N=[S@](N)(=O)c1cccc(C(C)(C)C)c1 [ANASIA-049-1] | 296 | > 64 |  | 
CC(C)C[C@H](N)C(=O)N=[S@](N)(=O)c1cc(C#N)cs1.Cl [ANASIA-136-1] | 71.8 |  |  | MIC [3, 5]: 8 µg/mL; MIC [3, 6]: > 64 µg/mL; MIC [3, 7]: > 256 µg/mL
